Measurements as given in patent US20230117831A1, “MULTI-FUNCTIONAL CHIMERIC MOLECULES” (THE BROAD INSTITUTE, INC., priority 2020, published 2023).
“Also recorded” adds a separate entry of the source. Values belong to the molecule of their own block, whether it stands above or below them.

Columns and labels:
ABL [1] = target: T1, ABL (Homo sapiens, UniProt P00519); assay: ADP-Glo ABL activation; format: biochemical
From the text: To expand the scope of PHICS beyond the Ser/Thr kinases (AMPK or PKC), Applicants will develop PHICS using the Abelson (ABL) family that are nonreceptor tyrosine kinases with SH3-SH2-TK ([…]) domains (42, 43). An autoinhibitory mechanism involving intramolecular interactions stabilizes this kinase in a “locked” conformation, inhibiting kinase activity unless the SH3 domain interactions are disrupted by binding of an activator. The SH2 domain of ABL is responsible for substrate specificity: if the SH2 domain is exchanged for another protein's SH2 domain, then substrate specificity is altered (43). […] Both DPH and DPH with linker (FIG. 83B) activated ABL in […] (FIG. 83C).

ABL [2] = target: T1, ABL; conditions: cited from earlier work
VEGFR = VEGFR (Homo sapiens, UniProt P35968); conditions: cited from earlier work
PKCalpha [3] = target: T2, PKCalpha (Homo sapiens, UniProt P17252); conditions: cited from earlier work
PKC beta = PKC beta (Homo sapiens, UniProt P05771); conditions: cited from earlier work
PKC delta = PKC delta (Homo sapiens, UniProt Q05655); conditions: cited from earlier work
PKC epsilon = target: T3, PKC epsilon (Homo sapiens, UniProt Q02156); conditions: cited from earlier work
T3 sequence (Q02156 1-737): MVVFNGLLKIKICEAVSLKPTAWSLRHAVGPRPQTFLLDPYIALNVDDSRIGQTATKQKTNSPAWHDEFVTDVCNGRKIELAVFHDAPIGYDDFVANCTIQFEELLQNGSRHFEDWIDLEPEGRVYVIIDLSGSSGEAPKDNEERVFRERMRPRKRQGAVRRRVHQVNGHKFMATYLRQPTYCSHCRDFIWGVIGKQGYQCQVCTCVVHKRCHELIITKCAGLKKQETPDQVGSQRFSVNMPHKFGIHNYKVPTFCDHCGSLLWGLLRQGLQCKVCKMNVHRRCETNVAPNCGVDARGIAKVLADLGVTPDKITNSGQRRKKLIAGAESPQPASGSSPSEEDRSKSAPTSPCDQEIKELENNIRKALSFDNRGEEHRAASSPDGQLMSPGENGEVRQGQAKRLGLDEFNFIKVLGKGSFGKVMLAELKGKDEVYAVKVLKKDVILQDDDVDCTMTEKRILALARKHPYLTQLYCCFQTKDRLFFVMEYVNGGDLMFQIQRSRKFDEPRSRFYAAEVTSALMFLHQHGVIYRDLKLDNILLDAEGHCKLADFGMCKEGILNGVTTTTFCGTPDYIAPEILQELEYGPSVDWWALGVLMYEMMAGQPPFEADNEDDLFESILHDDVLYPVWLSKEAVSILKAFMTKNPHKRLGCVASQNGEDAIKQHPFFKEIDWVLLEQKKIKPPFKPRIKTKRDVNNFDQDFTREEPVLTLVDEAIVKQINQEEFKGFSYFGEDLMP

[4] = test system: lung cancer and HeLa cervical adenocarcinoma cells; conditions: formation of membrane ruffles; cited from earlier work
PKCδ = PKCδ (Homo sapiens, UniProt Q05655); conditions: cited from earlier work
PKC gamma = PKC gamma (Homo sapiens, UniProt P05129); conditions: cited from earlier work
[5] = test system: breast carcinoma cell lines MCF-7 and MDA-MB-231; conditions: cited from earlier work
PKCalpha [6] = target: T2, PKCalpha; conditions: cited from earlier work; remark: listed apart in the source
BTK (Ser180) [7] = target: BTK (Ser180) (Homo sapiens, UniProt Q06187+Q13131+Q9Y478); assay: in vitro BTK phosphorylation by AMPK, western blot; format: biochemical; conditions: phospho BTK (Ser180) antibody
Description: FIG. 69—In-vitro biochemical validation of BTK phosphorylation by AMPK in the presence of PHICS. Western blot analysis for BTK phosphorylation using 10 μM BTK targeting AMPK-PHICS with different linkers for identification of the optimal molecule for further studies.

[8] = test system: AMPK:PHICS3:BTK ternary complex; assay: co-immunoprecipitation of AMPK with BTK-Flag in HEK293T cells; format: cell-based; conditions: HEK293T transfected with BTK-Flag
Description: Co-immunoprecipitation was performed to evaluate the ternary complex (AMPK: PHICS3: BTK) formation in HEK293T cells after overexpressing the BTK, which is otherwise absent in these cells. HEK293T cells were cultured in DMEM supplemented with 10% FBS, penicillin (100 units/mL) and streptomycin (100 μg/mL). Cells were maintained at 37° C. in 5% CO2 humidified atmosphere.
After 36 hrs transfection of pcDNA3.1(+) BTK-Flag plasmid using TransIT®-293 Transfection Reagent, HEK 293T cells were maintained in a serum-free media overnight before incubation with compounds. After that, cells were treated with 5 μM concentration of AMPK activator or BTK binder or PHICS3 or DMSO control for 4 hrs in a fresh serum-free media before cells were lysed on ice in a lysis buffer (M-PER™ Mammalian Protein Extraction Reagent, Halt™ Protease and Phosphatase Inhibitor Cocktail (2×) and 50 mM NaF). Next, the protein concentrations of cell lysates were measured using Pierce™ BCA Protein Assay Kit. Equal amounts of cell lysates were incubated with Anti-FLAG® M2 Magnetic Beads overnight at 4° C. […] Eluted proteins were analyzed by western blotting using AMPK-α rabbit antibody (Cell Signaling, Cat #5832) or Flag mouse antibody (Cell Signaling, Cat #8146) (1:2000) or Beta-actin mouse antibody (Cell Signaling, Cat #3700) (1:2000).

BTK (Ser180) [9] = target: BTK (Ser180) (Homo sapiens, UniProt Q06187); assay: BTK Ser180 phosphorylation in HEK293T cells, western blot; format: cell-based
BTK (Ser180) [10] = target: T4, BTK (Ser180) (Homo sapiens, UniProt Q06187, D539N); assay: as above; format: cell-based; conditions: BTK D539N mutant
T4 construct: expressed in transfected cells; host or cells: HEK293T

BTK (Ser180) [11] = target: T5, BTK (Ser180) (Homo sapiens, UniProt Q06187, K430R); assay: as above; format: cell-based; conditions: BTK K430R mutant
T5 construct: expressed in transfected cells; host or cells: HEK293T

BTK (Ser180) [12] = target: T6, BTK (Ser180) (Homo sapiens, UniProt Q06187, S180A); assay: as above; format: cell-based; conditions: BTK-Flag S180A mutant
T6 construct: expressed in transfected cells; host or cells: HEK293T

BTK (Ser180) [13] = target: T7, BTK (Ser180) (Homo sapiens, UniProt Q06187, T474A); assay: as above; format: cell-based; conditions: BTK T474A mutant
T7 construct: expressed in transfected cells; host or cells: HEK293T

BRD4 and PKC (α-isoform) = target: T8, BRD4 and PKC (α-isoform) (Homo sapiens, UniProt O60885+P17252); assay: AlphaScreen ternary complex formation; format: binding
T8 construct: BRD4-His tag (BD1 and BD2 (49-460))(31045); purchased BPS Bioscience (BRD4); SignalChem (PKCα) 31045; P61-18G
Description: A similar approach was followed to determine the PHICS2 induced ternary complex formation between PKC: PHICS2: BRD4-GST (BD1 and BD2). Initially, concentration series of PHICS (2.1, 2.2, 2.3, 2.4 and 2.5) with different linkers and (R)-PHICS2.3 with DMSO control were prepared in a white opaque 384-well microplate using a dilution assay buffer with 1% DMSO in the final mixture. Then 10 nM PKC-GST and 100 nM BRD4 (6×His tag) were added to the mixture and incubated at room temperature. Following 1 hr incubation, acceptor beads and donor beads were added to the system.

BRD4 (PKCα) = target: T9, BRD4 (PKCα) (Homo sapiens, UniProt O60885+P17252); assay: BRD4 phosphorylation by PKC, western blot; format: biochemical
T9 construct: BRD4-GST (BD1 and BD2 (49-460))(31044); GST; purchased BPS Bioscience (BRD4); SignalChem (PKCα) 31044; P61-18G
Description: Kinase reaction was performed using 1 μM PHICS (2.1, 2.2, 2.3, 2.4, 2.5 and (R)-2.3), 50 nM PKC, 700 nM BRD4-GST and 50 μM ATP for 1 hr at room temperature before quenching with SDS loading buffer. Proteins were resolved in NuPAGE 4-12% Bis-Tris protein gels and transferred to a PVDF membrane. After incubation of the membrane with the blocking buffer, phospho-PKC substrate motif [(R/K)XpSX(R/K)] (Cell Signaling, Cat #6967) (1:1000) primary antibody was added to the membrane and further incubated at 4° C. for overnight. HRP-conjugated secondary antibodies or IRDye 800CW/IRDye 680RD secondary antibodies were used to visualize the protein bands.
(§1) Similar approaches were followed to determine the phosphorylation of BRD4 with different AMPK and PKC isoforms as well as phosphorylation of different BRD proteins.

BRD4 (PKC) = target: T10, BRD4 (PKC) (Homo sapiens, UniProt O60885+P17252); assay: ADP-Glo turnover assay, PKC + BRD4-GST; format: biochemical; conditions: limiting PKC 50 nM; iPHICS2 as negative control
T10 construct: BRD4-GST (BD1 and BD2 (49-460))(31044); GST; purchased BPS Bioscience (BRD4); SignalChem (PKCα) 31044; P61-18G
Description: The same protocol was followed for PHICS2.3 as well. Initially, 1 μM of PHICS2.3 and (R)-PHICS2.3 were prepared in a 96 well plate (white, flat bottom) using kinase assay buffer and incubated with 50 nM PKC and 700 nM BRD4-GST (BD1 and BD2) for 1 hr at room temperature in the presence of 50 μM ATP before adding ADP-Glo reagents.

BRD4 (PKCβI) = target: T11, BRD4 (PKCβI) (Homo sapiens, UniProt O60885+P05771); assay: BRD4 phosphorylation by PKC isoform, western blot; format: biochemical
T11 construct: BRD4-GST (BD1 and BD2 (49-460))(31044); purchased SignalChem (PKC); BPS Bioscience (BRD4) P62-18G; 31044
From the text: as §1

BRD4 (PKCβII) = target: T12, BRD4 (PKCβII) (Homo sapiens, UniProt O60885+P05771); assay: BRD4 phosphorylation by PKC isoform, western blot; format: biochemical
T12 construct: BRD4-GST (BD1 and BD2 (49-460))(31044); purchased SignalChem (PKC); BPS Bioscience (BRD4) P63-18G; 31044
From the text: as §1

BRD4 (PKCγ) = target: T13, BRD4 (PKCγ) (Homo sapiens, UniProt O60885+P05129); assay: BRD4 phosphorylation by PKC isoform, western blot; format: biochemical
T13 construct: BRD4-GST (BD1 and BD2 (49-460))(31044); purchased SignalChem (PKC); BPS Bioscience (BRD4) P66-18G; 31044
From the text: as §1

BRD4 (PKCδ) = target: T14, BRD4 (PKCδ) (Homo sapiens, UniProt O60885+Q05655); assay: BRD4 phosphorylation by PKC isoform, western blot; format: biochemical
T14 construct: BRD4-GST (BD1 and BD2 (49-460))(31044); purchased SignalChem (PKC); BPS Bioscience (BRD4) P64-18G; 31044
From the text: as §1

Sequence of BTK (Ser180) (Homo sapiens, UniProt Q06187) (Q06187 2-659): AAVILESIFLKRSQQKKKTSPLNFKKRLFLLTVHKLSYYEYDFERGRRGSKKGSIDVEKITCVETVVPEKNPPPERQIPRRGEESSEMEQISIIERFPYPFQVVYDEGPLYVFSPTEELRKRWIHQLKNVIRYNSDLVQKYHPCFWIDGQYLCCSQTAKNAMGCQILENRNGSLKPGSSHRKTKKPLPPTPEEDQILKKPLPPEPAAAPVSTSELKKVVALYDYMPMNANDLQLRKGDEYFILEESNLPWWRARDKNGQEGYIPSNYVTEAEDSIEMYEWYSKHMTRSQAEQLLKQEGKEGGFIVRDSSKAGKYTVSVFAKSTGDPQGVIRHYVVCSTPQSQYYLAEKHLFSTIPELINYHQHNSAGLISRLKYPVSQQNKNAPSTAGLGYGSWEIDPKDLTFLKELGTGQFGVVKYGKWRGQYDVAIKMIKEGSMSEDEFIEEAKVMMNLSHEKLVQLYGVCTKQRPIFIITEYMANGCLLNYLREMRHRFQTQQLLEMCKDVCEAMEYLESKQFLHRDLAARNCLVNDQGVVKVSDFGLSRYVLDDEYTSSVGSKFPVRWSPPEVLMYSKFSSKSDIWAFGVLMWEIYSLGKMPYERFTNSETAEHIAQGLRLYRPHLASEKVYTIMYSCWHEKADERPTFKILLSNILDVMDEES
Sequence of BTK (Ser180) (Homo sapiens, UniProt Q06187+Q13131+Q9Y478) (Q06187 whole entry): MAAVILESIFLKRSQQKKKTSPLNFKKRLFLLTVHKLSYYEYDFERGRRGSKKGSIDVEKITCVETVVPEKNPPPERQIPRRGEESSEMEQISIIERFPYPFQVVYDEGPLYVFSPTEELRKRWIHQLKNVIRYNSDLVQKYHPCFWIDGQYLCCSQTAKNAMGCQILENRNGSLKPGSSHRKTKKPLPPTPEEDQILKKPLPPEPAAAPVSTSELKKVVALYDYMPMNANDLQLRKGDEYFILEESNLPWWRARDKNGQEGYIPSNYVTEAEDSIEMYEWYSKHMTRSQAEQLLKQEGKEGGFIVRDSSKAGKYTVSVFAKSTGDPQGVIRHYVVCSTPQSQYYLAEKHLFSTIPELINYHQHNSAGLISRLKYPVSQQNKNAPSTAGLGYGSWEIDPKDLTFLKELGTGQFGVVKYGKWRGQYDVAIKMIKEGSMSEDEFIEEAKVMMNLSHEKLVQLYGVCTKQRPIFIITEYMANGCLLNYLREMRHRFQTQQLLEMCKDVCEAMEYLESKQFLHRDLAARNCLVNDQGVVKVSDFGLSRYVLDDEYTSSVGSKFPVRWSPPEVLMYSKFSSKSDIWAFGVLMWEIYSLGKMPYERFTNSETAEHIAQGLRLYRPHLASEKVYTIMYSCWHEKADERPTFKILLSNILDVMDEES
Sequence of BTK (Ser180) (Homo sapiens, UniProt Q06187+Q13131+Q9Y478) (Q13131 whole entry): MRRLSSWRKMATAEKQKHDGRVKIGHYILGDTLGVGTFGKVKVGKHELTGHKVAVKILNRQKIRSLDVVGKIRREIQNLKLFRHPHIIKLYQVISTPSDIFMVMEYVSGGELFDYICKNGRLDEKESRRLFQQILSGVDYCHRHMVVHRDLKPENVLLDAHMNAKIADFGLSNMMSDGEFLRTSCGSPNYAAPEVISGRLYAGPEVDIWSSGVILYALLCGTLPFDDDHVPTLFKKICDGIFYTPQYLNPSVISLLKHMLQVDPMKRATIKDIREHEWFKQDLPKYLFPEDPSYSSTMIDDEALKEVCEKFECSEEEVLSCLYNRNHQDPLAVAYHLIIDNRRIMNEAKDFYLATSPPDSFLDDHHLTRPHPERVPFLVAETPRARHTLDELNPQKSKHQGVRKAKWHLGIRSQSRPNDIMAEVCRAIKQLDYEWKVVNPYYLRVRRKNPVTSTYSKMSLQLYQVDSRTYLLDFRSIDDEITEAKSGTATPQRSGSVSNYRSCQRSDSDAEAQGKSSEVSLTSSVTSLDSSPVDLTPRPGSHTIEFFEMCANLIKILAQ
Sequence of BTK (Ser180) (Homo sapiens, UniProt Q06187+Q13131+Q9Y478) (Q9Y478 whole entry): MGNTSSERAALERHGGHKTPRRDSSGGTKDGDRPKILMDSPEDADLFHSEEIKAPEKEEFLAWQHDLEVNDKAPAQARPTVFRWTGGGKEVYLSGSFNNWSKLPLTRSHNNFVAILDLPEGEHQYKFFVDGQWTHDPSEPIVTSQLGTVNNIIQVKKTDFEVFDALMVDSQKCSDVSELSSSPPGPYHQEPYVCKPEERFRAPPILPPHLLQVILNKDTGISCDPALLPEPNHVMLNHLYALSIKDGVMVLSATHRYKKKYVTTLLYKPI
Sequence of BTK (Ser180) (Homo sapiens, UniProt Q06187+Q13131+Q9Y478) (P54619 whole entry partner): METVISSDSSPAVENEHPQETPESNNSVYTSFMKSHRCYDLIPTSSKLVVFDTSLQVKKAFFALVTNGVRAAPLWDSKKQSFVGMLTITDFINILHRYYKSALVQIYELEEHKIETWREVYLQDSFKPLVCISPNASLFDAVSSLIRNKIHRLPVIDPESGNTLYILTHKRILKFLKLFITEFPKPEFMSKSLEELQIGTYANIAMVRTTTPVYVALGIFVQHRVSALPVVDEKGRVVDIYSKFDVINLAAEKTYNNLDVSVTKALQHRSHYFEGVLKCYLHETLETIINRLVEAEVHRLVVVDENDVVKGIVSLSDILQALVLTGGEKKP
T1 sequence (P00519 whole entry, species assumed, the tested form may be a part): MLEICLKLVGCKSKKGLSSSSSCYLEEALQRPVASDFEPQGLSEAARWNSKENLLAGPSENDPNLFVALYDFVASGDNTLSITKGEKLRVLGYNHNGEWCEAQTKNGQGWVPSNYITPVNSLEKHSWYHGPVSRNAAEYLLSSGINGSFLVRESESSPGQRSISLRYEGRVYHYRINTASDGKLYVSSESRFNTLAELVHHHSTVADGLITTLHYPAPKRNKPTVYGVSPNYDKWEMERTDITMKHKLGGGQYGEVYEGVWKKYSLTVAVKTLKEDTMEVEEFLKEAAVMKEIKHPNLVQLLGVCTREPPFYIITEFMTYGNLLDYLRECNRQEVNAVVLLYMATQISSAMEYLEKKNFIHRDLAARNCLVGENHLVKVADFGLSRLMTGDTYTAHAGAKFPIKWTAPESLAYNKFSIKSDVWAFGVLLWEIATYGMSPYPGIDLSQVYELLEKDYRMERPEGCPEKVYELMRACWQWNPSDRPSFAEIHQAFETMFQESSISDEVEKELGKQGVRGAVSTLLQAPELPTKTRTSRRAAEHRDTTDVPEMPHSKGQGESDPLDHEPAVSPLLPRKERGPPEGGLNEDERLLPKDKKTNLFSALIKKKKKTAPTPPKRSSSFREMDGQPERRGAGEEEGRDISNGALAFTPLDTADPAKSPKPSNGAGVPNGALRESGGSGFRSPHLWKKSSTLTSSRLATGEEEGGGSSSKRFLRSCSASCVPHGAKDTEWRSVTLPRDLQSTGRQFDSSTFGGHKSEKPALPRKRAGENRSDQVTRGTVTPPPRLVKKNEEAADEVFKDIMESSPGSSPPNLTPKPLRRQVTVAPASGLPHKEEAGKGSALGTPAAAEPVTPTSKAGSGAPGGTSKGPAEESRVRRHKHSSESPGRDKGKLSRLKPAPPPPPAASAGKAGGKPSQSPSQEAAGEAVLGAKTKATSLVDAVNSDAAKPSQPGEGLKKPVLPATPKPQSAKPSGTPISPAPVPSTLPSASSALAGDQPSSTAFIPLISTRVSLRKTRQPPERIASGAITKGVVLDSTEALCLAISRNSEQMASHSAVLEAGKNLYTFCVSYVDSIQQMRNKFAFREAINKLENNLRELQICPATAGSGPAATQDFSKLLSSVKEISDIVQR
Sequence of PKC delta (Q05655 whole entry): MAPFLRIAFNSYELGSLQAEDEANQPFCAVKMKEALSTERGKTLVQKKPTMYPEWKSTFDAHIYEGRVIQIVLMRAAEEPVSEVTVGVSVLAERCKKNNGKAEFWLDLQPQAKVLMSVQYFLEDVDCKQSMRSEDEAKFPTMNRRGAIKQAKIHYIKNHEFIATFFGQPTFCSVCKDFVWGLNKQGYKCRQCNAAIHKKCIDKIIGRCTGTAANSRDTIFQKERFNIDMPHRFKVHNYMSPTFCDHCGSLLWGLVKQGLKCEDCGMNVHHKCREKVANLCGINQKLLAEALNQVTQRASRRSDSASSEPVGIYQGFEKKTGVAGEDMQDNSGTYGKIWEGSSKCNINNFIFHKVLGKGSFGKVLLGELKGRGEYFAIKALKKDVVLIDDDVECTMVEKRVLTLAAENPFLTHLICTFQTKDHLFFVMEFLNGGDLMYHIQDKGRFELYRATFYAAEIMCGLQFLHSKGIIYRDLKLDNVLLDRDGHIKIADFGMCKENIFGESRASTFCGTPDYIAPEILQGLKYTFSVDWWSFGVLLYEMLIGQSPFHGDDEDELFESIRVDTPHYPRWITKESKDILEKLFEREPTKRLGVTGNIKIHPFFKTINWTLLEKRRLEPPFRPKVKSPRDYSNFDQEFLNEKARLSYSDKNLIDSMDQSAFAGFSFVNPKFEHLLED
T6 sequence (Q06187 2-659 S180A): as the sequence (Q06187 2-659) above, with S179A counted along it
T5 sequence (Q06187 2-659 K430R): as the sequence (Q06187 2-659) above, with K429R counted along it

SMILES: COc1cc2nccc(Oc3ccc(NC(=O)NC4CC4)c(Cl)c3)c2cc1C(N)=O [Lenvatinib]
Residence time (VEGFR): 17 min

SMILES: CC(C)CC(C/C=C1\CC(CO)(COC(=O)C(C)(C)C)OC1=O)CC(C)C (stereo not shown) [AJH-836]
Kd (PKCalpha [3]): 23.6 nM
Kd (PKC beta): 19.7 nM
Kd (PKC delta): 1.89 nM
Kd (PKC epsilon): 1.89 nM
cytoskeletal reorganization [4]: AJH-836 induced major changes in cytoskeletal reorganization in lung cancer and HeLa cervical adenocarcinoma cells as determined by the formation of membrane ruffles
PKC isoform selectivity (PKCδ): selective for PKCδ and PKC

SMILES: CCCCCCCCC#Cc1ccc2c(c1)C[C@@H](CO)NC(=O)[C@H](C(C)C)N2C
Kd (PKCalpha [3]): 14.7 nM
Kd (PKC beta): 17.4 nM
Kd (PKC gamma): 40.7 nM
Kd (PKC delta): 122 nM
Kd (PKC epsilon): 142 nM
antiproliferative activity against breast carcinoma [5]: antiproliferative activity
down-regulation of PKCalpha (PKCalpha [6]): preferentially down-regulates PKCalpha

SMILES: Nc1ncnc2c1c(-c1ccc(Oc3ccccc3)cc1)nn2[C@@H]1CCCN(C(=O)CCCCCCCCC(=O)NCCOc2ccc(-c3cc4c(C(=O)O)c[nH]c4cc3Cl)cc2)C1 [PHICS3]
in vitro BTK phosphorylation (linker comparison) (BTK (Ser180) [7]): most optimal molecule for phosphorylation; also recorded: optimum
ternary complex formation inside the cells (co-immunoprecipitation) [8]: co-immunoprecipitation of AMPK with BTK
BTK phosphorylation at Ser180 (BTK (Ser180) [9]; WT BTK-Flag): optimal molecule for phosphorylation; also recorded: able to detect PHICS-mediated BTK phosphorylation at Ser180
BTK phosphorylation at Ser180 (BTK (Ser180) [9]; pre-treatment with covalent BTK binder ibrutinib): demolished the ability of PHICS3 to induce BTK phosphorylation
BTK phosphorylation at Ser180 (BTK (Ser180) [10]): markedly reduced
BTK phosphorylation at Ser180 (BTK (Ser180) [11]): markedly reduced
BTK phosphorylation at Ser180 (BTK (Ser180) [12]): phosphorylation was not detected
BTK phosphorylation at Ser180 (BTK (Ser180) [13]): drastically lowered BTK phosphorylation

More lines, main results first:

ABL activation (ADP-Glo) (ABL [1]): activated
SMILES: O=C1NC(=O)C(c2cn(-c3ccccc3)nc2-c2ccc(F)cc2)N1 (stereo not shown) [DPH, 5-[3-(4-fluorophenyl)-1-phenyl-1H-pyrazol-4-yl]-2,4-imidazolidinedione]
Kd (ABL [2]): 137 nM

ternary complex formation (AlphaScreen), BRD4 and PKC (BRD4 and PKC (α-isoform)): displayed the bell-shaped curve
BRD4 phosphorylation level (BRD4 (PKCα)): highest BRD4 phosphorylation
calculated ADP production (BRD4 (PKC)): 740 ± 31 nM
BRD4 phosphorylation level (BRD4 (PKCβI)): modest phosphorylation
BRD4 phosphorylation level (BRD4 (PKCβII)): modest phosphorylation
BRD4 phosphorylation level (BRD4 (PKCγ)): only minor phosphorylation
BRD4 phosphorylation level (BRD4 (PKCδ)): only minor phosphorylation
SMILES: Cc1sc2c(c1C)C(c1ccc(Cl)cc1)=NC(CC(=O)NCCCCCC(=O)NCc1ccc(COc3ccc4c(c3)N(C)[C@@H](C(C)C)C(=O)N[C@H](CO)C4)cc1)c1nnc(C)n1-2 (stereo partly shown) [PHICS2.3]
